Experimental data taken from ChEMBL document CHEMBL1156276, “Solvent free synthesis, anti-inflammatory and anticancer activity evaluation of tricyclic and tetracyclic benzimidazole derivatives” (2010).
Counter-ions that a name gives are not always drawn.

Key:
Assay type in all cases: functional
Rattus norvegicus = test: Antiinflammatory activity against carrageenan-induced paw edema in rat assessed as paw volume at 50 mg/kg, po administered 30 mins before carrageenan challenge measured after 1 to 3 hrs by water plethysmometer relative to control
A549 = test: Anticancer activity against human A549 cells assessed as cell growth inhibition at 10 uM after 48 hrs by SRB assay; conditions: A549, 48 h, read-out: GI
HOP-62 = test: Anticancer activity against human HOP62 cells assessed as cell growth inhibition at 10 uM after 48 hrs by SRB assay; conditions: HOP-62, 48 h, read-out: GI
PC-3 = test: Anticancer activity against human PC3 cells assessed as cell growth inhibition at 10 uM after 48 hrs by SRB assay; conditions: PC-3, 48 h, read-out: GI
IGROV-1 = test: Anticancer activity against human IGROV1 cells assessed as cell growth inhibition at 10 uM after 48 hrs by SRB assay; conditions: IGROV-1, 48 h, read-out: GI
MCF7 = test: Anticancer activity against human MCF7 cells assessed as cell growth inhibition at 10 uM after 48 hrs by SRB assay; conditions: MCF7, 48 h, read-out: GI
SF-295 = test: Anticancer activity against human SF295 cells assessed as cell growth inhibition at 10 uM after 48 hrs by SRB assay; conditions: SF-295, 48 h, read-out: GI

| SMILES | Activity (Rattus norvegicus) [%] | inhibition of growth at 10 µM (A549) [%] | inhibition of growth at 10 µM (HOP-62) [%] | inhibition of growth at 10 µM (PC-3) [%] | inhibition of growth at 10 µM (IGROV-1) [%] | inhibition of growth at 10 µM (MCF7) [%] | inhibition of growth at 10 µM (SF-295) [%] |
| --- | --- | --- | --- | --- | --- | --- | --- |
| Cc1cc2[nH]c3cc4ccccc4c(=O)n3c2cc1C | 29.6 | 41 | 0 | 39 | 7 | 22 | 13 |
| O=c1c2ccccc2cc2[nH]c3cccc(O)c3n12 | 31.8 | 0 | 0 | 13 | 15 | 20 | 55 |
| O=C1c2nccnc2C2=NC3CCCCC3N12 (configuration not stated) | 25.6 | 10 | 6 | 15 | 28 | 48 | 37 |
| Cc1cc2nc3n(c2cc1C)C(=O)c1nccnc1-3 | 15.9 | 25 | 0 | 39 | 7 | 22 | 13 |
| O=C1c2nccnc2C2=Nc3ccccc3CN12 | 28.6 | 48 | 23 | 46 | 55 | 56 | 66 |
| O=C1c2nccnc2-c2nc3ccccc3n21 | 10 | 0 | 10 | 13 | 15 | 20 | 25 |
| O=C1CCC2=NC3CCCCC3N12 (configuration not stated) | 19.7 | 2 | 0 | 16 | 2 | 13 | 38 |
| O=C1CCc2nc3cccc(O)c3n21 | 39.2 | 0 | 9 | 13 | 20 | 22 | 53 |
| O=C1CCc2nc3ccc(Br)cc3n21 | 10 | 12 | 16 | 40 | 50 | 31 | 0 |
| O=C1CCc2nc3ccc([N+](=O)[O-])cc3n21 | 0 | 5 | 0 | 8 | 0 | 12 | 38 |
| N#Cc1ccc2nc3n(c2c1)C(=O)CC3 | 9 | 6 | 0 | 3 | 21 | 25 | 52 |
| Cc1cccc2nc3n(c12)C(=O)CC3 | 29.9 | 2 | 0 | 14 | 3 | 8 | 38 |
| O=C1CCc2nc3ccc(Cl)cc3n21 | 27.6 | 3 | 11 | 14 | 0 | 52 | 37 |
| O=c1c2ccccc2cc2n1C1CCCCC1N2 (configuration not stated) | 34.7 | 10 | 12 | 6 | 28 | 6 | 0 |
| Cc1cc2nc3n(c2cc1C)C(=O)CC3 | 39.4 | 0 | 4 | 7 | 26 | 8 | 54 |
| COc1cccc2c1C(=O)c1c(O)c3c(c(O)c1C2=O)C[C@@](O)(C(=O)CO)C[C@@H]3O[C@H]1C[C@H](N)[C@H](O)[C@H](C)O1 [DOXORUBICIN HYDROCHLORIDE] |  |  |  |  |  | 72 | 69 |
| CO[C@@]12[C@H](COC(N)=O)C3=C(C(=O)C(C)=C(N)C3=O)N1C[C@@H]1N[C@@H]12 [MITOMYCIN] |  |  |  | 53 |  |  | 43 |
| CC(=O)O[C@H]1C(=O)[C@@]2(C)[C@H]([C@H](OC(=O)c3ccccc3)[C@]3(O)C[C@H](OC(=O)[C@H](O)[C@@H](NC(=O)c4ccccc4)c4ccccc4)C(C)=C1C3(C)C)[C@]1(OC(C)=O)CO[C@@H]1C[C@@H]2O [PACLITAXEL] |  | 50 | 42 |  | 43 |  |  |
